Test results taken from patent US20260234115A1, “LIPID COMPOUNDS, COMPOSITIONS, AND USES THEREOF” (Liberate Bio, Inc., priority 2023, published 2026).
Marks after values point to notes of the source that are not given here.

System: mouse organs
Assay: In vivo activity screening in mice: organ mean total flux (p/s) of luciferase activity after injection of F2 LNP pools (Table 6, FIG. 7A-7C)
Conditions: Mouse 3, dose 1.0 mg/kg, luciferase mRNA
How it was run: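 Luciferase output per organ is reported as mean total flux (p/s) from IVIS regions of interest. Organs were collected from perfused C57BL/6J mice and imaged 10-15 min after s.c. D-luciferin, 4-6 h after i.v. dosing. Dosing was 0.25-3 mg/kg luciferase mRNA in F2 LNP pools.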

| SMILES | Organ Mean Total Flux Femur | Organ Mean Total Flux Heart | Organ Mean Total Flux Kidney | Organ Mean Total Flux Liver | Organ Mean Total Flux Lung | Organ Mean Total Flux Muscle | Organ Mean Total Flux Pancreas | Organ Mean Total Flux Spleen |
| --- | --- | --- | --- | --- | --- | --- | --- | --- |
| CCCCCCC(CCC(=O)OCC(COC(=O)CCCCCC(=O)OCCC(CCCCC)CCCCC)(COC(=O)CCCCCC(=O)OCCC(CCCCC)CCCCC)COC(=O)CCCCCC(=O)OCCC(CCCCC)CCCCC)OC(=O)NCCN1CCCC1 (stereo not shown) [Compound 52] | 6.0 p/s (×10^6) | 9.0 p/s (×10^6) | 8.4 p/s (×10^6) | 12143 p/s (×10^6) | 56.0 p/s (×10^6) | 15.1 p/s (×10^6) | 4.7 p/s (×10^6) | 6.1 p/s (×10^6) |
| CCCCCCC(CCC(=O)OCC(COC(=O)CCCCC(=O)OCCC(CCCC)CCCCC)(COC(=O)CCCCC(=O)OCCC(CCCCC)CCCCC)COC(=O)CCCCC(=O)OCCC(CCCCC)CCCCC)OC(=O)NCCN1CCCC1 (stereo not shown) [Compound 53] | 2.5 p/s (×10^6) | 2.1 p/s (×10^6) | 2.2 p/s (×10^6) | 1286 p/s (×10^6) | 12.1 p/s (×10^6) | 5.5 p/s (×10^6) | 2.3 p/s (×10^6) | 9.3 p/s (×10^6) |
| CCCCCCC(CCC(=O)OCC(COC(=O)CCCC(=O)OCCC(CCCCC)CCCCC)(COC(=O)CCCC(=O)OCCC(CCCCC)CCCCC)COC(=O)CCCC(=O)OCCC(CCCCC)CCCCC)OC(=O)NCCN1CCCC1 (stereo not shown) [Compound 54, O5-[2,2-bis[[5-oxo-5-(3-pentyloctoxy)pentanoyl]oxymethyl]-3-[4-(2-pyrrolidin-1-ylethylcarbamoyloxy)decanoyloxy]propyl]O1-(3-pentyloctyl) pentanedioate] | 9.0 p/s (×10^6) | 19.3 p/s (×10^6) | 60.3 p/s (×10^6) | 24850 p/s (×10^6) | 81.5 p/s (×10^6) | 19.2 p/s (×10^6) | 3.6 p/s (×10^6) | 9.6 p/s (×10^6) |
| CCCCCCC(CCC(=O)OCC(COC(=O)CCCCCOC(=O)C(CCCC)CCCCCC)(COC(=O)CCCCCOC(=O)C(CCCC)CCCCCC)COC(=O)CCCCCOC(=O)C(CCCC)CCCCCC)OC(=O)NCCN1CCCC1 (stereo not shown) [Compound 55, [6-[2,2-bis[6-(2-butyloctanoyloxy)hexanoyloxymethyl]-3-[4-(2-pyrrolidin-1ylethylcarbamoyloxy)decanoyloxy]propoxy]-6-oxo-hexyl]2-butyloctanoate] | 6.1 p/s (×10^6) | 4.4 p/s (×10^6) | 2.4 p/s (×10^6) | 4527 p/s (×10^6) | 19.9 p/s (×10^6) | 17.4 p/s (×10^6) | 2.6 p/s (×10^6) | 6.2 p/s (×10^6) |
| CCCCCCC(CCC(=O)OCC(COC(=O)CCCCOC(=O)C(CCCC)CCCCCC)(COC(=O)CCCCOC(=O)C(CCCC)CCCCCC)COC(=O)CCCCOC(=O)C(CCCC)CCCCCC)OC(=O)NCCN1CCCC1 (stereo not shown) [Compound 56, [5-[2,2-bis[5-(2-butyloctanoyloxy)pentanoyloxymethyl]-3-[4-(2-pyrrolidin-1-ylethylcarbamoyloxy)decanoyloxy]propoxy]-5-oxo-pentyl]2-butyloctanoate] | 6.4 p/s (×10^6) | 17.7 p/s (×10^6) | 9.4 p/s (×10^6) | 15800 p/s (×10^6) | 66.6 p/s (×10^6) | 19.7 p/s (×10^6) | 3.4 p/s (×10^6) | 13.0 p/s (×10^6) |
